Data taken from ChEMBL document CHEMBL3822377, “Locking PDK1 in DFG-out conformation through 2-oxo-indole containing molecules: Another tools to fight glioblastoma” (Eur J Med Chem, 2016).
Calls of active or inactive are those of the source. The rule behind the calls is not given here.

Tests used:
[1] = biological target: CDK9/cyclin T1 (Homo sapiens) (UniProt O60563+P50750); test: Inhibition of His-tagged full-length human recombinant CDK9/Cyclin T1 expressed in baculovirus system at 100 nM by adapta assay
[2] = biological target: Phosphatidylinositol 4-kinase beta (Homo sapiens) (UniProt Q9UBF8); test: Inhibition of GST-tagged full-length human PI4K beta expressed in baculovirus system at 100 nM by adapta assay
Phosphatidylinositol 4-kinase beta (Homo sapiens), sequence (Q9UBF8 2-816 limits assumed): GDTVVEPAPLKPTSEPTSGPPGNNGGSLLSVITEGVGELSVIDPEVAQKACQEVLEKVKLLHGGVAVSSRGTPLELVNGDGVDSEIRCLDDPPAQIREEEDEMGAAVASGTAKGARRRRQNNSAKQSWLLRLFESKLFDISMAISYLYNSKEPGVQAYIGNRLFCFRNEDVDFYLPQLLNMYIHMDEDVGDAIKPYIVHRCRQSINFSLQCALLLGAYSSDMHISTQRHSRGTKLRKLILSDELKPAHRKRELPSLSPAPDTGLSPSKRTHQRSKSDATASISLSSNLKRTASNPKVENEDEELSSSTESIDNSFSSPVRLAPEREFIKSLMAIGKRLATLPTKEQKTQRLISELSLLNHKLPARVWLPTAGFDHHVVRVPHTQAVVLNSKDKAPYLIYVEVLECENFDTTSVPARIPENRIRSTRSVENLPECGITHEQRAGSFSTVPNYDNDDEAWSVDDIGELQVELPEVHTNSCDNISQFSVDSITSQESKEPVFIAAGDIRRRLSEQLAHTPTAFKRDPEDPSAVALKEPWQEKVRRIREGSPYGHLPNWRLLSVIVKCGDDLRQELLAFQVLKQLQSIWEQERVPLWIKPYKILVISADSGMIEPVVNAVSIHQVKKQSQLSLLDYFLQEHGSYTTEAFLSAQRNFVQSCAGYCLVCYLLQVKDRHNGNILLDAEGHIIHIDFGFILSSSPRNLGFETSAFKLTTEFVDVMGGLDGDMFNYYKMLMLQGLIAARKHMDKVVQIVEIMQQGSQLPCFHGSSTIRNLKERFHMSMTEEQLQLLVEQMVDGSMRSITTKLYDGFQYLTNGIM

[3] = biological target: PI3-kinase p110-alpha/p85-alpha (Homo sapiens) (UniProt P27986+P42336); test: Inhibition of His-tagged full-length human recombinant PIK3CA/PIK3R1 expressed in baculovirus system at 100 nM by adapta assay
[4] = biological target: PI3-kinase p110-delta/p85-alpha (Homo sapiens) (UniProt P27986+O00329); test: Inhibition of His-tagged full-length human PIK3CD/PIK3R1 expressed in baculovirus system at 100 nM by adapta assay
[5] = biological target: Phosphatidylinositol 4,5-bisphosphate 3-kinase catalytic subunit gamma isoform (Homo sapiens) (UniProt P48736); test: Inhibition of His-tagged full-length human PIK3CG expressed in baculovirus system at 100 nM by adapta assay
[6] = biological target: Tyrosine-protein kinase ABL1 (Homo sapiens) (UniProt P00519); test: Inhibition of His-tagged full-length human ABL1 expressed in baculovirus system at 100 nM by Z-lyte assay
[7] = biological target: RAC-alpha serine/threonine-protein kinase (Homo sapiens) (UniProt P31749); test: Inhibition of His-tagged full-length human AKT1 expressed in baculovirus system at 100 nM by Z-lyte assay
[8] = biological target: AMP-activated protein kinase, AMPK (Homo sapiens) (UniProt P54646+O43741+P54619+Q9UGJ0+Q9Y478+Q13131+Q9UGI9); test: Inhibition of GST/His-tagged full-length human recombinant AMPK A2/B1/G1 expressed in baculovirus system at 100 nM by Z-lyte assay
[9] = biological target: Aurora kinase A (Homo sapiens) (UniProt O14965); test: Inhibition of His-tagged full-length recombinant human Aurora A expressed in baculovirus system at 100 nM by Z-lyte assay
[10] = biological target: CDK2/Cyclin A2 (Homo sapiens) (UniProt P24941+P20248); test: Inhibition of GST-tagged human CDK2/Cyclin A expressed in baculovirus system at 100 nM by Z-lyte assay
[11] = biological target: Cyclin-dependent kinase 5/CDK5 activator 1 (Homo sapiens) (UniProt Q00535+Q15078); test: Inhibition of GST/His-tagged full-length human CDK5/p25 expressed in baculovirus system at 100 nM by Z-lyte assay
Cyclin-dependent kinase 5/CDK5 activator 1 (Homo sapiens), sequence (Q00535 whole entry): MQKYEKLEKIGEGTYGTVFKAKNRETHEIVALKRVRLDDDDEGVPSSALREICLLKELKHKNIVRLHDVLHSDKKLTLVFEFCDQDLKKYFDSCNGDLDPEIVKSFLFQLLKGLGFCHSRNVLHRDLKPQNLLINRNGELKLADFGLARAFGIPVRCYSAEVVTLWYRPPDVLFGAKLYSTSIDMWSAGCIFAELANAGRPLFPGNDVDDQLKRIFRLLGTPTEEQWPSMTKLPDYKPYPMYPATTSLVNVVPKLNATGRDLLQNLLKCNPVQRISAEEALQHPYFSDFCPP
Cyclin-dependent kinase 5/CDK5 activator 1 (Homo sapiens), sequence (Q15078 99-307 partner limits assumed): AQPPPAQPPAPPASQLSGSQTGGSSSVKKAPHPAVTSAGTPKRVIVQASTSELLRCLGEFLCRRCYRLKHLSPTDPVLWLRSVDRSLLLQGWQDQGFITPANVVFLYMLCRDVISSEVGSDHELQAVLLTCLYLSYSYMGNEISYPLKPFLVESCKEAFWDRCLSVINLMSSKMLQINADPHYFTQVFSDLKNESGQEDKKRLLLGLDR

[12] = biological target: Serine/threonine-protein kinase Chk2 (Homo sapiens) (UniProt O96017); test: Inhibition of His-tagged full-length human CHEK2 expressed in baculovirus system at 100 nM by Z-lyte assay
[13] = biological target: Casein kinase I isoform gamma-1 (Homo sapiens) (UniProt Q9HCP0); test: Inhibition of GST-tagged full-length human CSNK1G1 expressed in baculovirus system at 100 nM by Z-lyte assay
Casein kinase I isoform gamma-1 (Homo sapiens), sequence (Q9HCP0 whole entry, looked up, canonical isoform): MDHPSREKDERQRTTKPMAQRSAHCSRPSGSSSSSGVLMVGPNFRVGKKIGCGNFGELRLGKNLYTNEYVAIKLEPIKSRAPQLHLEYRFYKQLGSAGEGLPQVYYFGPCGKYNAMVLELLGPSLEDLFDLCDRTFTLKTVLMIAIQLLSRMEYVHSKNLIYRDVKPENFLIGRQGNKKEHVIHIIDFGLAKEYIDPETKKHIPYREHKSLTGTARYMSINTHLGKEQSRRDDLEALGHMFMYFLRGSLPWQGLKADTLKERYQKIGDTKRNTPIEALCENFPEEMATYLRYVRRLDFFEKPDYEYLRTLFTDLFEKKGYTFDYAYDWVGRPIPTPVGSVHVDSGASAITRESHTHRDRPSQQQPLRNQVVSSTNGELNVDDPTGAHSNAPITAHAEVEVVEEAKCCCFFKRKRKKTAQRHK

[14] = biological target: G protein-coupled receptor kinase 5 (Homo sapiens) (UniProt P34947); test: Inhibition of GST-tagged full-length human recombinant GRK5 expressed in baculovirus system at 100 nM by Z-lyte assay
[15] = biological target: Interleukin-1 receptor-associated kinase 4 (Homo sapiens) (UniProt Q9NWZ3); test: Inhibition of His-tagged full-length human IRAK4 expressed in baculovirus system at 100 nM by Z-lyte assay
[16] = biological target: Tyrosine-protein kinase Lck (Homo sapiens) (UniProt P06239); test: Inhibition of His-tagged full-length human LCK expressed in baculovirus system at 100 nM by Z-lyte assay
[17] = biological target: Dual specificity mitogen-activated protein kinase kinase 2 (Homo sapiens) (UniProt P36507); test: Inhibition of His-tagged full-length recombinant human MAP2K2 expressed in baculovirus system at 100 nM by Z-lyte assay
Dual specificity mitogen-activated protein kinase kinase 2 (Homo sapiens), sequence (P36507 whole entry): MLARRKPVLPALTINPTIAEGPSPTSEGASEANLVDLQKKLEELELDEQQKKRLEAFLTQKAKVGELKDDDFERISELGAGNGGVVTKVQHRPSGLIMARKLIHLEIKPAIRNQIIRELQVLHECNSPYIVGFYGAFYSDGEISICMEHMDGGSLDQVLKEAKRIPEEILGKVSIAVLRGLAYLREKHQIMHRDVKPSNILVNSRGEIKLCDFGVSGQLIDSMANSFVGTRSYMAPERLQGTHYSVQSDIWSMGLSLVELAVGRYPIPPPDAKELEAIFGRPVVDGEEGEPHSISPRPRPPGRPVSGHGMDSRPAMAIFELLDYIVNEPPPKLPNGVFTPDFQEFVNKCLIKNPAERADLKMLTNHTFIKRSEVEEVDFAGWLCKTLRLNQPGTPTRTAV

[18] = biological target: Mitogen-activated protein kinase 8 (Homo sapiens) (UniProt P45983); test: Inhibition of His-tagged full-length human MAPK8 expressed in baculovirus system at 100 nM by Z-lyte assay
Mitogen-activated protein kinase 8 (Homo sapiens), sequence (P45983 whole entry): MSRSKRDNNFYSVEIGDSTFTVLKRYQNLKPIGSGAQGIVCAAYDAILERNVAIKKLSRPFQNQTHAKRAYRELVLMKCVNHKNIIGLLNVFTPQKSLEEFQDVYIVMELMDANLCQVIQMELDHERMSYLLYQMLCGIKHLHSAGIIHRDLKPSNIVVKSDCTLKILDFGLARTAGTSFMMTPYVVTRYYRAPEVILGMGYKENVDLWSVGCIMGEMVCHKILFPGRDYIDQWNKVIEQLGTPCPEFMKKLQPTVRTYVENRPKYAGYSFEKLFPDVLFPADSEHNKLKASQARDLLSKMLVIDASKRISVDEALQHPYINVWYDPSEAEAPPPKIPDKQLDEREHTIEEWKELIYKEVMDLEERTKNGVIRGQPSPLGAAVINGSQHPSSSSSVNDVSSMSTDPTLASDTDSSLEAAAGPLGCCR

[19] = biological target: Mitogen-activated protein kinase 9 (Homo sapiens) (UniProt P45984); test: Inhibition of His-tagged full-length recombinant human MAPK9 expressed in baculovirus system at 100 nM by Z-lyte assay
Mitogen-activated protein kinase 9 (Homo sapiens), sequence (P45984 whole entry, looked up): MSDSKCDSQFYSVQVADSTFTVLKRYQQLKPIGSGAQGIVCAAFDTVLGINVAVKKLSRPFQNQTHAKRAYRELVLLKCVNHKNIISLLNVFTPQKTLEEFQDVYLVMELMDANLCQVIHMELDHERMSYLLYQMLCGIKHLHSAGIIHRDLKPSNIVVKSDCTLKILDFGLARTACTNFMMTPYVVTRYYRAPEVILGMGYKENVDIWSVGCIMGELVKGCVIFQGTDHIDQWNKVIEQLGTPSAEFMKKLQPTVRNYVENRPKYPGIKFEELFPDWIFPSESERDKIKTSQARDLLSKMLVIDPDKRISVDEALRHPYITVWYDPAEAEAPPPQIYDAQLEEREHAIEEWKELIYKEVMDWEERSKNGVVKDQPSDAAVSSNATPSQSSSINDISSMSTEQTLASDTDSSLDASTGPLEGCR

[20] = biological target: Protein kinase C alpha type (Homo sapiens) (UniProt P17252); test: Inhibition of full-length human PRKCA expressed in baculovirus system at 100 nM by Z-lyte assay
[21] = biological target: Protein kinase C beta type (Homo sapiens) (UniProt P05771); test: Inhibition of full-length human PRKCB1 expressed in baculovirus system at 100 nM by Z-lyte assay
[22] = biological target: Protein kinase C delta type (Homo sapiens) (UniProt Q05655); test: Inhibition of full-length recombinant human PRKCD expressed in baculovirus system at 100 nM by Z-lyte assay
[23] = biological target: Protein kinase C zeta type (Homo sapiens) (UniProt Q05513); test: Inhibition of full-length recombinant human PRKCZ expressed in baculovirus system at 100 nM by Z-lyte assay
Protein kinase C zeta type (Homo sapiens), sequence (Q05513 whole entry): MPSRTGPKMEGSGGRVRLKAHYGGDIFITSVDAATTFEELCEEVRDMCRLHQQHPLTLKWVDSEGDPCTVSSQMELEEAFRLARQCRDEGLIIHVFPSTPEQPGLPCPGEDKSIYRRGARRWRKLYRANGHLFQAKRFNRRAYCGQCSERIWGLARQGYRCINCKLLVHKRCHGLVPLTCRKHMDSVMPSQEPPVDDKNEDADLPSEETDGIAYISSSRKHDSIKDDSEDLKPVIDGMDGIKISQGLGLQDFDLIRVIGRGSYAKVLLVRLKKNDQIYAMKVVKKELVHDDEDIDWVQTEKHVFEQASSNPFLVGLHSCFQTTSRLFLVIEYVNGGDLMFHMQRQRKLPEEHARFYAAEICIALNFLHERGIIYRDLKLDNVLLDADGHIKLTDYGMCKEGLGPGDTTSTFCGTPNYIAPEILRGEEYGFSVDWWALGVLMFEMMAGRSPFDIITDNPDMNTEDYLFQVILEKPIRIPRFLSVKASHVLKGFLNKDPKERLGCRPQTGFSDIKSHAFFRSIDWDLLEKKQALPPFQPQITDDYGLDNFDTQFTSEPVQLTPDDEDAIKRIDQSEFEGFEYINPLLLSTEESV

[24] = biological target: Rho-associated protein kinase 2 (Homo sapiens) (UniProt O75116); test: Inhibition of catalytic recombinant GST-tagged human ROCK2 expressed in baculovirus system at 100 nM by Z-lyte assay
[25] = biological target: Ribosomal protein S6 kinase alpha-1 (Homo sapiens) (UniProt Q15418); test: Inhibition of His-tagged full-length recombinant human RSK1 expressed in baculovirus system at 100 nM by Z-lyte assay
Ribosomal protein S6 kinase alpha-1 (Homo sapiens), sequence (Q15418 whole entry): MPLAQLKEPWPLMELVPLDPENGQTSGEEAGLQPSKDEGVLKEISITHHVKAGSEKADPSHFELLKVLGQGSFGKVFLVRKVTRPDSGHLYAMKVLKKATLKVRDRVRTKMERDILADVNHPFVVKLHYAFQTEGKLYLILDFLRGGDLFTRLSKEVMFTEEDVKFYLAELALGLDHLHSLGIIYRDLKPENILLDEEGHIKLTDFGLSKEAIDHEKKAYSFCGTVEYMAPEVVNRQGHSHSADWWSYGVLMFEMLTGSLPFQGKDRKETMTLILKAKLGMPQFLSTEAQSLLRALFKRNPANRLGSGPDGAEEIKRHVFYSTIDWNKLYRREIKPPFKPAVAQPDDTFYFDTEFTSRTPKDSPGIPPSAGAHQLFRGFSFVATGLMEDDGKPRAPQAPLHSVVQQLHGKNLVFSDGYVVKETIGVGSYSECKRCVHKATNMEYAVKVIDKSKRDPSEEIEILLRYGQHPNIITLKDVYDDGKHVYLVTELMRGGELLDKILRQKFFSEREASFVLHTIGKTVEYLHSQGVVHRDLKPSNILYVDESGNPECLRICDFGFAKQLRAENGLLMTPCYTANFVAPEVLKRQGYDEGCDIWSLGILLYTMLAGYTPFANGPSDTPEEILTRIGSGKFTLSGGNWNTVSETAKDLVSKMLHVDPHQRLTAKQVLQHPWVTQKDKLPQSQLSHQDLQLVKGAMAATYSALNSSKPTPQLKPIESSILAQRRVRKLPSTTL

[26] = Antiproliferative activity against human U87MG cells at 0.001 to 100 uM after 24 hrs by MTS assay; type: functional, U-87MG ATCC
U-87 MG [27] = test: Induction of apoptosis in human U87MG cells assessed as late apoptotic cells by measuring phosphatidylserine externalisation at 10 uM after 72 hrs in presence of 7-amino-actinomysin by AnnexinV/FITC staining-based flow cytometry (reference value: 4.46%); type: functional, U-87MG ATCC
U-87 MG [28] = test: Induction of apoptosis in human U87MG cells assessed as early apoptotic cells by measuring phosphatidylserine externalisation at 10 uM after 72 hrs by AnnexinV/FITC staining-based flow cytometry (reference value: 6.39%); type: functional, U-87MG ATCC
U-87 MG [29] = test: Induction of apoptosis in human U87MG cells assessed as dead cells by measuring phosphatidylserine externalisation at 10 uM after 72 hrs in presence of 7-amino-actinomysin by AnnexinV/FITC staining-based flow cytometry (reference value: 2.1%); type: functional, U-87MG ATCC
U-87MG ATCC = test: Inhibition of AKT phosphorylation at Thr308 residue in human U87MG cells at 10 uM by ELISA relative to control; type: cell-based
GSC = test: Antiproliferative activity against human GSC cells at 0.001 to 1 uM after 4 days by MTS assay; type: functional, cell-based
[30] = Induction of apoptosis in human GSC cells assessed as live cells by measuring phosphatidylserine externalisation at 10 uM after 7 days by AnnexinV/FITC staining-based flow cytometry (reference value: 87.49%); type: functional

O=C(CNC(=O)c1cccn(Cc2ccc(F)c(F)c2)c1=O)Nc1ccc2c(c1)/C(=C/c1cnc[nH]1)C(=O)N2
inhibition [1]: 6%
inhibition [2]: 4%
inhibition [3]: 20%
inhibition [4]: 17%
inhibition [5]: 2%
inhibition [6]: 14%
inhibition [7]: -8%
inhibition [8]: 10%
inhibition [9]: 38%
inhibition [10]: 4%
inhibition [11]: -8%
inhibition [12]: 4%
inhibition [13]: 3%
inhibition [14]: -4%
inhibition [15]: -6%
inhibition [16]: 9%
inhibition [17]: 9%
inhibition [18]: 12%
inhibition [19]: -1%
inhibition [20]: 0%
inhibition [21]: -10%
inhibition [22]: -7%
inhibition [23]: -3%
inhibition [24]: 2%
inhibition [25]: 2%
Imax [26]: 41%
Activity (U-87 MG [27]): 5.65%
Activity (U-87 MG [28]): 17.3%
Activity (U-87 MG [29]): 0.64%
inhibition (U-87MG ATCC): Dose-dependent effect
Activity (GSC): Active
Activity [30]: 58.6%
